According to US6815546B2, “Analogues of camptothecin, their use as medicaments and the pharmaceutical compositions containing them” (Societe de Recherches et d'Applications Scientifiques …, priority 1995, dated 2004):

Key:
[1] = system: Adenocarcinoma HT29 cells from the human colon; experiment: Adenocarcinoma HT29 cell proliferation, WST1 (compounds in DMA); type: cell-based; settings: final DMA 0.1% (v/v)
Experimental: c. Adenocarcinoma HT29 cells from the human colon are cultured in a single layer at 37° in a humidified atmosphere containing 95% of air and 5% of CO2, in a modified essential Earle's medium at 4.5 g/l (Gibco, Paisley, United Kingdom); completed with 10% of inactivated foetal calf serum, 2 mM of glutamine, and 50 μg/ml of gentamycin (Gibco, Paisley, United Kingdom).
Approximately 2000 cells are seeded with the culture medium above in the wells of a microplate (96 wells, flat-bottomed) and incubated for 24 hours. Solutions in N,N-dimethyl-acetamide (DMA) of each of the examples of the invention, diluted in the culture medium so that the final concentration of DMA is 0.1% (v/v), are added to the plate cultures in order to obtain final concentration ranges from 1×10^−13 to 1×10^−5 M, and the cells are incubated for 72 hours.
The WST1 staining reagent, (Boehringer Mannheim, Germany) is then added to each well at a final concentration of 9%, and the cells are incubated for 2 hours at 37° C. This stage allows the mitochondrial deshydrogenase of the living cells to convert WST1 orange tetrazolium salt into crimson formazan. The resulting stained solutions are quantified by dual-beam detection ([…]) using a multi-cuvette scanning spectrophotometer.
The results shown in the following table III C) are expressed in terms of inhibitory concentration at 50% (IC50, in nM), accompanied by a confidence interval.

[2] = target: T1, DNA topoisomerase 1 of purified calf thymus (Bos taurus, UniProt F1MN93); experiment: Relaxation activity test of DNA induced by topoisomerase 1; type: biochemical; settings: supercoiled pUC19, 15 minutes at 37° C.
T1 construct: DNA topoisomerase 1 of purified calf thymus (Gibco-BRL, Paisley, United Kingdom); purchased Gibco-BRL, Paisley, United Kingdom; host or cells: calf thymus tissue
T1 sequence (F1MN93 1-767): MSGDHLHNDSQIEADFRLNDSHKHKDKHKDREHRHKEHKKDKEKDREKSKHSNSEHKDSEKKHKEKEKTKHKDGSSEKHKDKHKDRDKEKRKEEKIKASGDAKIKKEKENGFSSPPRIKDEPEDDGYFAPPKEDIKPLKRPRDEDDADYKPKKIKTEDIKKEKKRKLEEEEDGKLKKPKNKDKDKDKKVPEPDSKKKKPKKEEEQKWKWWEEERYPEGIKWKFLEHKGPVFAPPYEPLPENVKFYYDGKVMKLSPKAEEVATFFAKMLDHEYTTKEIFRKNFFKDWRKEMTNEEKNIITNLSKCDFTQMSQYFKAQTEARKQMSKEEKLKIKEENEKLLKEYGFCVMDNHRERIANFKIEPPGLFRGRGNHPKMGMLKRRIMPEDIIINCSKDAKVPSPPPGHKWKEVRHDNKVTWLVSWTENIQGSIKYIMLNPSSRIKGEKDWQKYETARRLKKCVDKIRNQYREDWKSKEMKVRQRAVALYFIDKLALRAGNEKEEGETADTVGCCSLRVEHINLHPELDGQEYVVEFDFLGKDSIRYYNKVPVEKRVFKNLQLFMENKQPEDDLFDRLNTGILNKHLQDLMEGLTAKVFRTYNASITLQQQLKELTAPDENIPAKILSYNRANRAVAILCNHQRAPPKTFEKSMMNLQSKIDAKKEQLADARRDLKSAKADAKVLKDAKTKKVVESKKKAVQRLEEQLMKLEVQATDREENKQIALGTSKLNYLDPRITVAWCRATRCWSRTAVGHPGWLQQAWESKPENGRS
Experimental: 1. Relaxation Activity Test of DNA Induced by Topoisomerase 1
All the reactions are carried out in a 20 μl reaction buffer constituted by 50 mM of Tris-HCl (pH 7.5), 50 mM of KCl, 0.5 mM of dithiothreitol, 10 mM of MgCl2, 0.1 mM of ethyldiamine tetraacetic acid (EDTA), 30 μg/ml of bovine serum albumin and 300 ng of supercoiled pUC19 (Pharmacia Biotech, Orsay, France) with or without the compounds to be tested at defined concentrations. All the compounds to be tested are initially dissolved in dimethylsulphoxide (DMSO) at 50 mM, the other dilutions being carried out with distilled water. […] The reaction is initiated by the addition of a unit of DNA topoisomerase 1 of purified calf thymus (Gibco-BRL, Paisley, United Kingdom) and is carried out for 15 minutes at 37° C. The reactions are stopped by the addition of 3 μl of a mixture containing 1% dodecyl sodium sulphate at 1%, 20 mM of EDTA and 500 μg/ml of K proteinase (Boehringer Mannheim, Meylan, France). After an additional incubation period of 30 minutes at 37° C., 2 μl of a loading buffer containing 10 mM of Na2HPO4, 0.3% of bromophenol blue et 16% Ficoll are added to samples which are subjected to electrophoresis in agarose gels at 1.2% at 1 V/cm for 20 hours in a buffer containing 36 mM of Tris-HCl at pH 7.8, 30 mM of Na2HPO4, 1 mM of EDTA and 2 μg/ml of chloroquine. The gels are stained with 2 μg/ml of ethidium bromide, photographed under UV light at 312 nm with a camera and the fluorescent intensity is measured with a bioProfil camera (Vilber Lournat, Lyon, France) with a view to determining the percentage of relaxed DNA. Each experiment is carried out at least three times in duplicate.
In each experiment, the supercoiled plasmid DNA is incubated alone or with topoisomerase 1. The reaction is completed within 15 minutes. For each compound to be tested or control, the supercoiled plasmid DNA is incubated in the presence of 500 μM of compound to be tested with enzyme or without enzyme plus the compound to be tested, at concentrations of 10 μM, 100 μM, 200 μM and 500 μM.

| Compound | IC50 ([1]; Homo sapiens, HT-29, 72 hours) [nM] | PERCENTAGE OF RELAXED DNA ([2]; 10 μM compound) [%] | PERCENTAGE OF RELAXED DNA ([2]; 100 μM compound) [%] | PERCENTAGE OF RELAXED DNA ([2]; 200 μM compound) [%] | also measured |
| --- | --- | --- | --- | --- | --- |
| CCCCc1c2c(nc3ccccc13)-c1cc3c(c(=O)n1C2)COC(=O)C[C@]3(O)CC [Example 87, (5R)-12-butyl-5-ethyl-5-hydroxy-4,5,13,15-tetrahydro-1H,3H-oxepino[3′,4′:6,7]indolizino[1,2-b]quinoline-3,15-dione] | 16 | – | – | – | – |
| CCc1c2c(nc3cc(F)cc(F)c13)-c1cc3c(c(=O)n1C2)COC(=O)C[C@]3(O)CC [Example 102, (5R)-5,12-diethyl-9,1 1-difluoro-5-hydroxy-4,5,13,15-tetrahydro-1H,3H-oxepino[3′,4′:6,7]indolizino[1,2-b]quinoline-3,15-dione] | 8 | – | – | – | – |
| CC[C@@]1(O)CC(=O)OCc2c1cc1n(c2=O)Cc2cc3c(F)c(F)c(F)cc3nc2-1 [Example 171, (5R)-5-ethyl-9,10,11-trifluoro-5-hydroxy-4,5,13,15-tetrahydro-1H,3H-oxepino[3′,4′:6,7]indolizino[1,2-b]quinoleine-3,15-dione] | – | – | – | – | IC50 ([1]; 72 hours): 8.2 nM |
| CC[C@@]1(O)CC(=O)OCc2c1cc1n(c2=O)Cc2c-1nc1ccccc1c2-c1ccccc1 [Example 89, (5R)-5-ethyl-5-hydroxy-12-phenyl-4,5,13,15-tetrahydro-1H,3H-oxepino[3′,4′:6,7]indolizino[1,2-b]quinoline-3,15-dione] | 13 | – | – | – | – |
| CC[C@@]1(O)CC(=O)OCc2c1cc1n(c2=O)Cc2c-1nc1ccccc1c2Cl [Example 160, (5R)-12-chloro-5-ethyl-5-hydroxy-4,5,13,15-tetrahydro-1H,3H-oxepino[3′,4′:6,7]indolizino[1,2-b]quinoleine-3,15-dione] | – | – | – | – | IC50 ([1]; 72 hours): 5.5 nM |
| CC[C@@]1(O)CC(=O)OCc2c1cc1n(c2=O)Cc2c-1nc1ccccc1c2-c1ccc(C)cc1 [Example 91, (5R)-5-ethyl-5-hydroxy-12-(4-methylphenyl)-4,5,13,15-tetrahydro-1H,3H-oxepino[3′,4′:6,7]indolizino[1,2-b]quinoline-3,15-dione] | 11 | – | – | – | – |
| CCC1(O)CC(=O)OCc2c1cc1n(c2=O)Cc2cc3c4c(c(F)cc3nc2-1)OCN(Cc1ccccc1)C4 (stereo not drawn) [Example 79, 2-benzyl-9-ethyl-5-fluoro-9-hydroxy-1,2,3,9,10,16-hexahydro-13H-[1,3]oxazino[5,6f]oxepino[3′,4′:6,7]indolizino[1,2-b]quinoline-11,14-dione] | – | 55.6 | 38.9 | 30.0 | – |
| CC[C@@]1(O)CC(=O)OCc2c1cc1n(c2=O)Cc2c-1nc1cc(F)c(F)cc1c2CC[Si](C)(C)C [Example 99, (5R)-5-ethyl-9,10-difluoro-5-hydroxy-1 2-(2-trimethylsilylethyl)-4,5,13,15-tetrahydro-1H,3H-oxepino[3′,4′:6,7]indolizino[1,2-b]quinoline-3,15-dione] | 5 | – | – | – | – |
| CC[C@@]1(O)CC(=O)OCc2c1cc1n(c2=O)Cc2c-1nc1cc(F)ccc1c2CC(C)(C)C [Example 163, (5R)-5-ethyl-9-fluoro-5-hydroxy-12-neopentyl-4,5,13,15-tetrahydro-1H,3H-oxepino[3′,4′:6,7]indolizino[1,2-b]quinoleine-3,15-dione] | – | – | – | – | IC50 ([1]; 72 hours): 6 nM |
| CC[C@@]1(O)CC(=O)OCc2c1cc1n(c2=O)Cc2cc3ccc(F)cc3nc2-1 [Example 84, (5R)-5-ethyl-9-fluoro-5-hydroxy-4,5,13,15-tetrahydro-1H,3H-oxepino[3′,4′:6,7]indolizino[1,2-b]quinoline-3,15-dione] | 2.5 | – | – | – | – |
| CC[C@@]1(O)CC(=O)OCc2c1cc1n(c2=O)Cc2c-1nc1cc(F)ccc1c2-c1cccc(F)c1 [Example 164, (5R)-5-ethyl-9-fluoro-12-(3-fluorophenyl)-5-hydroxy-4,5,13,15-tetrahydro-1H,3H-oxepino[3′,4′:6,7]indolizino[1,2-b]quinoleine-3,15-dione] | – | – | – | – | IC50 ([1]; 72 hours): 2.7 nM |
| CC[C@@]1(O)CC(=O)OCc2c1cc1n(c2=O)Cc2c-1nc1ccccc1c2CC[Si](C)(C)C [Example 104, (5R)-5-ethyl-5-hydroxy-12-(2-trimethylsilylethyl)-4,5,13,15-tetrahydro-1H,3H-oxepino[3′,4′:6,7]indolizino[1,2-b]quinoline-3,15-dione] | 8.6 | – | – | – | – |
| CCOC(=O)CC(O)(CC)c1cc2n(c(=O)c1CO)Cc1cc3ccccc3nc1-2 (stereo not drawn) [Example 2, ethyl 3-hydroxy-3-[8-(hydroxymethyl)-9-oxo-9,11-dihydroindolizino [1,2-b]quinolin-7-yl]pentanoate] | – | 97.9 | 78.3 | 73.2 | PERCENTAGE OF RELAXED DNA ([2]; 500 μM compound): 51.1% |
| CCC1(O)CC(=O)OCc2c1cc1n(c2=O)Cc2cc3c4c(ccc3nc2-1)OCN(Cc1ccccc1)C4 (stereo not drawn) [Example 78, 2-benzyl-9-ethyl-9-hydroxy-1,2,3,9,10,16-hexahydro-13H-[1,3]oxazino[5,6f]oxepino[3′,4′:6,7]indolizino[1,2-b]quinoline-11,14-dione] | – | 56.2 | 28.0 | 24.2 | – |
| CCC1(O)CC(=O)OCc2c1cc1n(c2=O)Cc2cc3c4c(ccc3nc2-1)OCN(C)C4 (stereo not drawn) [Example 77, 9-ethyl-9-hydroxy-2-methyl-1,2,3,9,10,16-hexahydro-13H-[1,3]oxazino[5,6f]oxepino[3′,4′:6,7]indolizino[1,2-b]quinoline-11,14-dione] | – | 86.2 | 35.1 | 32.1 | – |
| CCN1COc2ccc3nc4c(cc3c2C1)Cn1c-4cc2c(c1=O)COC(=O)CC2(O)CC (stereo not drawn) [Example 76, 2,9-diethyl-9-hydroxy-1,2,3,9,10,16-hexahydro-13H-[1,3]oxazino[5,6-f]oxepino[3′,4′:6,7]indolizino[1,2-b]quinoline-11,14-dione] | – | 79.7 | 33.5 | 23.2 | – |
